SMILES strings stand for the structures. Where two headings read alike, the source gives them in different places.

In general, IC50 refers to the concentration needed to halve the response being measured. As a reminder, the EC50 is the concentration at which the effect is half-maximal.

Test [1] deals with T1, reverse transcriptase (Human immunodeficiency virus type 1 group M subtype B, UniProt P04585).
T1 construct: negative control (mixture without reverse transcriptase); purchased Roche Diagnostics GmbH, Mannheim, Germany
The test is described as follows: Biochemical Reverse Transcriptase Assay (Reverse Transcriptase Assay, colorimetric, Roche). As for the experimental part:
The “Reverse Transcriptase Assay, colorimetric” (Roche Diagnostics GmbH, Mannheim, Germany) is used in accordance with the manufacturer's information. The test substances are dissolved in DMSO and are used in the test diluted in 5-fold steps (final DMSO concentration 1%). The resulting values of the photometric evaluation (405/492 nm) are less than 0.1 for the negative control (mixture without reverse transcriptase) and are in the region of 1.5 for the positive control (mixture without test substance). The IC50 values of the test substances are determined as the concentration of the test substance dilution at which the measured optical density is 50% of the positive control.

The subject of test [2] is HIV-1LAI. In words: H9 assay with wild-type HIV-1 (HIV-1LAI supernatant infection, AlamarBlue). The test is classed as cell-based. Conditions: Human immunodeficiency virus 1, H9 cells, 10% FCS. As for the experimental part:
For the mixture for a 96-well MTP, 3 million PBLs are pelleted, suspended in 1 ml of RPMI 1640 medium/10% FCS and incubated together with a suitable amount of HIV-1LAI (NIH AIDS Research & Reference Reagent Program, Germantown, USA) at 37° C. for 2 hours (pellet infection). Unadsorbed viruses are subsequently washed out with PBS, and the infected cells are pelleted again and suspended in 18 ml of RPMI 1640 medium/10% FCS/interleukin-2 (40 U/ml). 180 μl thereof are pipetted into each well of a white 96-well MTP with 20 μl of test substance in suitable dilution. Alternatively, after preparation of the substance dilutions in the MTP, the HIV is pipetted in together with the cells and is not washed out again (supernatant infection). In order to avoid edge effects, the wells at the edge of the MTP are not used for substance dilutions. The second vertical row of the MTP contains only infected cells (virus control) and the eleventh vertical row only uninfected cells (cell control), in each case in RPMI 1640 medium/10% FCS/interleukin-2 (40 U/ml). The other wells of the MTP contain the compounds of the invention in various concentrations starting from the third vertical row, from which the test substances are diluted in 3-fold steps up to the tenth vertical row 3^7-fold. The test substances are dissolved in DMSO, whereby the final DMSO concentration in the test mixture eventually is 1%. The test mixtures are incubated at 37° C./5% CO2. After 5 and 7 days, 50 μl of cell-free supernatant are removed from each well to determine the amount of p24 present by means of a p24 ELISA (HIV-1 p24^CA Antigen Capture Assay Kit, NCI-Frederick Cancer Research and Development Center, Frederick, USA). From the resulting values of the photometric evaluation (450/620 nm) the EC50 values of the test substances are determined as the concentration at which the amount of p24 is 50% of the untreated infected cells.
Alternatively, H9 cells (ATCC, Wesel, Germany) are employed instead of PBLs for testing the test substances. H9 cells are incubated in RPMI 1640 medium with 2% or 10% FCS as a HIV-1LAI supernatant infection at 37° C./5% CO2, (20 μl of substance dilution and 80 μl of cells/virus per well) in accordance with the pattern described above for 5 days. Subsequently, 10 μl of AlamarBlue (Invitrogen, Karlsruhe, Germany) are added to each well, and the MTPs are incubated at 37° C. for 3 hours before the fluorimetric evaluation takes place (544/590 nm). The resulting values are about 40 000 for the untreated uninfected cells and about 7000 for the untreated infected cells. In the low concentration range, the EC50 values of the test substances are determined as the concentration at which the fluorescence is 50% of the untreated uninfected cells (in each case subtracting the values of the untreated infected cells). In addition, in the high concentration range, the CC50 values of the test substances are determined as the concentration at which the fluorescence is 50% of the untreated uninfected cells (in each case subtracting the values of the untreated infected cells).

Test [3] concerns HIV-1NL4-3 wt. The test is described as follows: Light assay with wild-type HI reporter virus in MT4 7F2 cells. Conditions: Human immunodeficiency virus 1, 2% FCS. It counts as cell-based. As for the experimental part: (§1) For the mixture for a 96-well MTP, 3 million MT4 7F2 cells are pelleted, suspended in 1 ml of RPMI 1640 medium without phenol red (Invitrogen, Karlsruhe, Germany)/10% FCS/10% AIM-V (Invitrogen, Karlsruhe, Germany) and incubated together with a suitable amount of the corresponding HIV-1NL4-3 reporter virus at 37° C. for 2 hours (pellet infection). Unadsorbed viruses are subsequently washed out with PBS, and the infected cells are pelleted again and suspended in 8 ml of RPMI 1640 medium without phenol red/2% or 10% FCS/10% AIM-V. 80 μl thereof are pipetted into each well of a white 96-well MTP with 20 μl of test substance in suitable dilution. To avoid edge effects, the wells on the edge of the MTP are not used for substance dilutions. The second vertical row of the MTP contains only infected cells (virus control) and the eleventh vertical row only uninfected cells (cell control), in each case in RPMI 1640 medium without phenol red/2% or 10% FCS/10% AIM-V. The other wells of the MTP contain the compounds of the invention in various concentrations starting from the third vertical row, from which the test substances are diluted in 3-fold steps up to the tenth vertical row 3^7-fold. The test substances are dissolved in DMSO, whereby the final DMSO concentration in the test mixture eventually is 1%. The test mixtures are incubated at 37° C./5% CO2 for five days and, after the addition of 15 μl of Lu164 substrate (5 mg/ml coelenterazine dissolved in 30 μM glutathione/DMSO, 100 mM NaCl, 1M MES, 100 mM glutathione), evaluated by luminometry. The resulting values are in the region of 1 000 000 RLUs (relative light units) for the virus control and 300 to 400 RLUs for the cell control. The EC50 values of the test substances are determined as the concentration at which the virus replication measured in RLUs is 50% of the untreated infected cells.

Test [4] has as its system HIV-1NL4-3 K103N-Y181C. In words: Light assay with inhibitor-resistant HI reporter virus in MT4 7F2 cells. It counts as cell-based. Conditions: Human immunodeficiency virus 1, read-out: EC50 (nM) MT4 7F2 cells HIV-1NL4-3 K103N-Y181C 2% FCS. As for the experimental part: as §1

For the molecule `O=C1CN(C(=O)c2cc(-c3cc(F)cc(Cl)c3)n(-c3ccc(F)c(Cl)c3)n2)CN1` [Example 1, 1-{[1-(3-Chloro-4-fluorophenyl)-5-(3-chloro-5-fluorophenyl)-1H-pyrazol-3-yl]carbonyl}imidazolidin-4-one], the IC50 in test [1] (read-out: IC50 (nM) RT Assay) amounted to 38 nM. For the same molecule, the EC50 in test [2] was found to be 2 nM; in test [3], 0.2 nM; in test [4], 3 nM.
In the same order, the values of `O=C1CN(C(=O)c2cc(-c3cc(F)cc(Cl)c3)n(-c3cccc(Cl)c3)n2)CN1` [Example 2, 1-{[5-(3-Chloro-5-fluorophenyl)-1-(3-chlorophenyl)-1H-pyrazol-3-yl]carbonyl}imidazolidin-4-one] are 34 nM, 0.2 nM, 0.06 nM and 11 nM.
For `O=C1CN(C(=O)c2cc(-c3cc(F)cc(F)c3)n(-c3cccc(Cl)c3)n2)CN1` [Example 3, 1-{[1-(3-Chlorophenyl)-5-(3,5-difluorophenyl)-1H-pyrazol-3-yl]carbonyl}imidazolidin-4-one], in that order: 37 nM, 0.2 nM, 0.03 nM and 7 nM.
In the same order, the values of `O=C1CN(C(=O)c2cc(-c3cccc(Cl)c3)n(-c3cccc(Cl)c3)n2)CN1` [Example 4, 1-{[1,5-Bis(3-chlorophenyl)-1H-pyrazol-3-yl]carbonyl}imidazolidin-4-one] are 75 nM, 11 nM, 1 nM and 45 nM.
For `COc1cc(F)cc(-c2cc(C(=O)N3CNC(=O)C3)nn2-c2cccc(Cl)c2)c1` [Example 21, 1-{[1-(3-Chlorophenyl)-5-(3-fluoro-5-methoxyphenyl)-1H-pyrazol-3-yl]carbonyl}imidazolidin-4-one], in test [1] (read-out: IC50 (nM) RT Assay), the IC50 worked out at 59 nM. Also, the EC50 was found to be 3 nM in test [2], 1 nM in test [3] and 38 nM in test [4].
For `COc1cc(F)cc(-c2cc(C(=O)N3CNC(=O)C3)nn2-c2ccc(F)c(Cl)c2)c1` [Example 22, 1-{[1-(3-Chloro-4-fluorophenyl)-5-(3-fluoro-5-methoxyphenyl)-1H-pyrazol-3-yl]carbonyl}imidazolidin-4-one], in that order: 131 nM, 2 nM, 0.3 nM and 10 nM.
For `N#Cc1cccc(-c2cc(C(=O)N3CNC(=O)C3)nn2-c2ccc(F)c(Cl)c2)c1` [Example 25], in that order: 99 nM, 2 nM, 0.6 nM and 30 nM.
With `O=C1CN(C(=O)c2cc(-c3cccc(F)c3)n(-c3ccc(F)c(Cl)c3)n2)CN1` [Example 26, 1-{[1-(3-Chloro-4-fluorophenyl)-5-(3-fluorophenyl)-1H-pyrazol-3-yl]carbonyl}imidazolidin-4-one], in test [1] (read-out: IC50 (nM) RT Assay), the IC50 stood at 104 nM. Also, the 50% effective concentration (EC50) in test [2] worked out at 11 nM; in test [3], 2 nM; in test [4], 65 nM.
For `O=C1CN(C(=O)c2cc(-c3cc(F)cc(C(F)(F)F)c3)n(-c3cccc(Cl)c3)n2)CN1` [Example 30, 1-({1-(3-Chlorophenyl)-5-[3-fluoro-5-(trifluoromethyl)phenyl]-1H-pyrazol-3-yl}carbonyl)imidazolidin-4-one], in that order: 297 nM, 8 nM, 3 nM and 16 nM.
On to `O=C1CN(C(=O)c2cc(-c3cccc(Cl)c3)n(-c3cccc(Br)c3)n2)CN1` [Example 32, 1-{[1-(3-Bromophenyl)-5-(3-chlorophenyl)-1H-pyrazol-3-yl]carbonyl}imidazolidin-4-one], for which, in test [1] (read-out: IC50 (nM) RT Assay), the IC50 came out at 65 nM. The concentration for a half-maximal effect (EC50) in test [2] is 0.7 nM; in test [3], 0.1 nM; in test [4], 25 nM.
Turning to `O=C1CN(C(=O)c2cc(-c3ccc(F)c(Cl)c3)n(-c3cccc(Br)c3)n2)CN1` [Example 33, 1-{[1-(3-Bromophenyl)-5-(3-chloro-4-fluorophenyl)-1H-pyrazol-3-yl]carbonyl}imidazolidin-4-one], the IC50 in test [1] (read-out: IC50 (nM) RT Assay) was found to be 8 nM. The EC50 in test [2] stood at 0.5 nM; in test [3], 0.07 nM; in test [4] it was 3 nM.
Consider `O=C1CN(C(=O)c2cc(-c3cc(F)cc(OCCO)c3)n(-c3ccc(F)c(Cl)c3)n2)CN1` [Example 36], for which, in test [1], it took 52 nM to reach half-maximal inhibition (IC50). Moreover, the EC50 in test [2] came out at 3 nM; in test [3] it was 0.6 nM; in test [4] it was 45 nM.
As for `O=C1CN(C(=O)c2cc(-c3cccc(OCCCN4CCOCC4)c3)n(-c3cccc(Cl)c3)n2)CN1` [Example 37, 1-({1-(3-Chlorophenyl)-5-[3-(3-morpholin-1-ylpropoxy)phenyl]-1H-pyrazol-3-yl}carbonyl)imidazolidin-4-one], in test [1] (read-out: IC50 (nM) RT Assay), the IC50 was found to be 175 nM. Besides, the EC50 came to 33 nM in test [2], 18 nM in test [3] and 2000 nM in test [4].
In the same order, the values of `COc1cccc(-c2cc(C(=O)N3CNC(=O)C3)nn2-c2ccc(F)c(Cl)c2)c1` [Example 38, 1-{[1-(3-Chloro-4-fluorophenyl)-5-(3-methoxyphenyl)-1H-pyrazol-3-yl]carbonyl}imidazolidin-4-one] are 365 nM, 120 nM, 9 nM and 80 nM.
For `Cc1cc(F)cc(-c2cc(C(=O)N3CNC(=O)C3)nn2-c2cccc(Cl)c2)c1` [Example 51, 1-{[1-(3-Chlorophenyl)-5-(3-fluoro-5-methylphenyl)-1H-pyrazol-3-yl]carbonyl}imidazolidin-4-one], in that order: 60 nM, 1 nM, 0.4 nM and 15 nM.
For `N#Cc1cccc(-n2nc(C(=O)N3CNC(=O)C3)cc2-c2ccc(F)c(Cl)c2)c1` [Example 52, 1-{[5-(3-Chloro-4-fluorophenyl)-1-(3-Cyanophenyl)-1H-pyrazol-3-yl]carbonyl}imidazolidin-4-one], in test [1] (read-out: IC50 (nM) RT Assay), the IC50 was 38 nM. Moreover, the EC50 in test [2] was determined as 2 nM; in test [3] it was 0.1 nM; in test [4] it was 17 nM.

For the origin of these results see US8399682B2, “Substituted (pyrazolylcarbonyl)imidazolidinones and their use” (AiCuris GmbH & Co. KG, priority 2008, dated 2013).
